According to ChEMBL document CHEMBL1201862, “PubChem BioAssay data set” (2004):
Active and inactive are the calls of the source.

Assays:
[1] = biological target: T1, Tyrosine-protein phosphatase non-receptor type 7 (Homo sapiens, UniProt P35236); experiment: inhibitors of human HePTP phosphatase, […], biochemical, absorbance, leukemia target (AID 521); type: functional
T1 sequence (P35236 whole entry): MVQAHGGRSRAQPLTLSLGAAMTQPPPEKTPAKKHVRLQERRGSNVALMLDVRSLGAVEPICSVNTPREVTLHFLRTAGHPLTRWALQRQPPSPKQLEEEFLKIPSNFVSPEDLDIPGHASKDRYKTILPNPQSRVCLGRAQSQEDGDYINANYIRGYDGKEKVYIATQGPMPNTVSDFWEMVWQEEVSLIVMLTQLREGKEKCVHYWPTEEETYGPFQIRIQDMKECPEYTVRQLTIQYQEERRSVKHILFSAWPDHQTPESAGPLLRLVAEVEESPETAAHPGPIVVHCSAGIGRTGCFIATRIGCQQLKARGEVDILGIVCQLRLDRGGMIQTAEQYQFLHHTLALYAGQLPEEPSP

cells = type: functional
Cytochrome P450 2C9 [2] = biological target: T2, Cytochrome P450 2C9 (Homo sapiens, UniProt P11712)
[3] = biological target: Eukaryotic translation initiation factor 4E (Mus musculus, UniProt P63073); experiment: eIF4E–eIF4G protein interaction inhibitors, dose response, biochemical, TR-FRET (AID 855); type: functional;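 note: potency for disrupting eIF4E binding to eIF4GI seen as loss of FRET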
Prothrombin = Prothrombin (Homo sapiens, UniProt P00734); experiment: Thrombin 1536 HTS Dose Response Confirmation. [Related pubchem assays: 1046 (Thrombin 1536 HTS; hits were confirmed in this assay)]; type: functional
[4] = inhibitors of SNCA 5'UTR-driven reporter translation, confirmation, H4 neuroglioma cells, luminescence (AID 1988); type: functional, cell-based
[5] = Luminescence Cell-Based Dose Response HTS to Identify Inhibitors of 5'UTR Stem-Loop Driven Prion Protein mRNA Translation in H4 Neuroglioblastoma Cells. [Related pubchem assays: 1827 (Project Summary), 1813 (Primary HTS)]; type: functional
Vero [6] = experiment: cells; type: functional; settings: Chlorocebus sabaeus
[7] = inhibitors of firefly luciferase expression or activity, dose response, H4 neuroglioma cells, luminescence (AID 1990); type: functional, cell-based
Vero [8] = experiment: cells; type: functional, cell-based; settings: Chlorocebus sabaeus
Paired box protein Pax-8 = Paired box protein Pax-8 (Homo sapiens, UniProt Q06710); experiment: inhibitors of PAX8-driven TPO luciferase reporter, dose response, RMG-I cells, cherry-pick (AID 687027); type: functional, cell-based;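 note: luciferase reporter driven by Pax8 target thyroperoxidase promoter measured by SteadyGlo luminescence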
Cytochrome P450 3A4 [9] = biological target: T3, Cytochrome P450 3A4 (Homo sapiens, UniProt P08684);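 note: CYP3A4 tested as one member of a cytochrome P450 panel screen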
Cytochrome P450 2C19 = Cytochrome P450 2C19 (Homo sapiens, UniProt P33261); experiment: Cytochrome panel assay with activity outcomes. Panel member name: p450-cyp2c19 Compounds with AC50 equal or less than 10 uM are considered active; type: functional
Cytochrome P450 2C9 [10] = biological target: T2, Cytochrome P450 2C9; remark: listed apart in the source
[11] = system: Streptococcus sp. 'group A'; experiment: growth inhibition of control SK(-) GAS strain, dose response, counter-screen for streptokinase expression inhibitor project, luminescence, kanamycin, BacTiterGlo, confirmation (AID 1900); type: functional, organism-based
Streptococcus = experiment: Group A Streptococcus viability loss, dose response, counter-screen for streptokinase expression inhibitor project, luminescence, BacTiterGlo (AID 1915); type: functional, organism-based;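 note: potency for reduction of bacterial viability or growth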
[12] = cytotoxicity toward NIH3T3 fibroblasts, dose response, counter-screen, cell-based, ATP luminescence, mouse fibroblasts (AID 2010); type: functional;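 note: cells exposed to compound for about 90 hours before reading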
[13] = growth suppression of beta-catenin-knockout colon cells, dose response, cell-based, HCT116, human colon tumor (AID 1045); type: functional;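 note: HCT116 colon tumor cells with beta catenin knocked out; cells exposed to compound for 60 hours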
[14] = biological target: T4, Zinc finger protein mex-5 (Caenorhabditis elegans, UniProt Q9XUB2); experiment: MEX-5/TCR-2 RNA interaction inhibitors, dose response, biochemical, C. elegans, fluorescence polarization (AID 1960)
T4 sequence (Q9XUB2 whole entry): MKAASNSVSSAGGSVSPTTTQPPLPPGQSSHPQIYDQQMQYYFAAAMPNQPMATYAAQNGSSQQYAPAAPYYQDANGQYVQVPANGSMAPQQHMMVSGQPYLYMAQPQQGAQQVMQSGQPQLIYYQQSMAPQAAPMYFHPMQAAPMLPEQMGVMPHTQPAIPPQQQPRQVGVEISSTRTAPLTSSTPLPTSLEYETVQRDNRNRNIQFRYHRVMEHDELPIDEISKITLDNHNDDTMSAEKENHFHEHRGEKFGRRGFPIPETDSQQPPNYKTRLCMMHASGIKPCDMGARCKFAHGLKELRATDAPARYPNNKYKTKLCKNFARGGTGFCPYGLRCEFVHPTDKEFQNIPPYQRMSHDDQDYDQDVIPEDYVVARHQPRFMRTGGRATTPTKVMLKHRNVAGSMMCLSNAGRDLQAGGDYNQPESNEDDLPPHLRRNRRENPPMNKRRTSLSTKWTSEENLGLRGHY

[15] = growth suppression of PTEN-null colon cells, dose response, cell-based, HCT116 PTEN knockout (AID 1047); type: functional;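 note: HCT116 colon tumor cells with PTEN knocked out; cells exposed to compound for 60 hours before readout; potency for loss of cell viability measured by luminescence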
[16] = biological target: T5, RNA-binding protein pos-1 (Caenorhabditis elegans, UniProt G5EF15); experiment: inhibitors of POS-1/mex-3 RNA binding, dose response, biochemical, fluorescence polarization (AID 1964);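 note: purified POS-1 fused to maltose binding protein made in E. coli; potency of compounds blocking POS-1 binding to fluorescent RNA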
T5 sequence (G5EF15 whole entry): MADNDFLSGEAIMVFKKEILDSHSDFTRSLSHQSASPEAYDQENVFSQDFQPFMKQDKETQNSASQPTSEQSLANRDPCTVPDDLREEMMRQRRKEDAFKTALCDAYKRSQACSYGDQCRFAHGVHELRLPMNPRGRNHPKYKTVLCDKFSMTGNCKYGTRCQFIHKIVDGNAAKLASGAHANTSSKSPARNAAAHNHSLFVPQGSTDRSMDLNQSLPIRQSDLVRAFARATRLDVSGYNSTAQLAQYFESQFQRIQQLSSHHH

[17] = inhibitors of intracellular T. cruzi replication, confirmation, NIH3T3 host cells, beta-gal luminescence (AID 2044); type: functional, cell-based;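 note: intracellular parasites grown in NIH/3T3 mouse fibroblasts as host cells; luminescent beta-galactosidase reporter signal from transgenic T. cruzi replicating inside host cells; inhibitors lower the luminescence signal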
Cytochrome P450 3A4 [18] = biological target: T3, Cytochrome P450 3A4; remark: listed apart in the source

T2 sequence (P11712 whole entry): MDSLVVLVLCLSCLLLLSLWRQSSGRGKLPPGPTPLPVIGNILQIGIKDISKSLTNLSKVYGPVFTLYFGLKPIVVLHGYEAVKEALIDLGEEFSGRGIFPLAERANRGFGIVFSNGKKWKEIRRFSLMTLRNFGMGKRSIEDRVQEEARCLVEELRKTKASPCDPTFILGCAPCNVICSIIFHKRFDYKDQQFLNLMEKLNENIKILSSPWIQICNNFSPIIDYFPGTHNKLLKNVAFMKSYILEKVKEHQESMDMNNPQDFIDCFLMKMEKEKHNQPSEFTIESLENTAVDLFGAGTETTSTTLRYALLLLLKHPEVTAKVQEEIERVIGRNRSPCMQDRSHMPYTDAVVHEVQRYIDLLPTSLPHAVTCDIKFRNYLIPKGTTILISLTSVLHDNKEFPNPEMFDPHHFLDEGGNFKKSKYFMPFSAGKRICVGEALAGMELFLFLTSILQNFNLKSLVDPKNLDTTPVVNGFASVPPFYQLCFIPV
Chain of Cytochrome P450 2C19 (P33261 whole entry): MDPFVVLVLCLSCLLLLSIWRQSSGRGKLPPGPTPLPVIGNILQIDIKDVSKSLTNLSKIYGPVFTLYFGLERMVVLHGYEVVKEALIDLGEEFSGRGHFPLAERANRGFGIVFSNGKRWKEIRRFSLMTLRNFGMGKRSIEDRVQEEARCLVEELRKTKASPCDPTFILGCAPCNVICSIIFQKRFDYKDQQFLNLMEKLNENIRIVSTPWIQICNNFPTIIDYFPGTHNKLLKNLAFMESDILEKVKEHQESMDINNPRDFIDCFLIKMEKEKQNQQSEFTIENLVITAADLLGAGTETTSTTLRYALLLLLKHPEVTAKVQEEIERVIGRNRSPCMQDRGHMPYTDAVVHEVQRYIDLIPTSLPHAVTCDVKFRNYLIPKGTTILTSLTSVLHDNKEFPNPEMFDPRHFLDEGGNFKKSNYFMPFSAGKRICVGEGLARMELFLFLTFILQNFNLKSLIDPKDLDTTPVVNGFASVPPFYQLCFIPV
T3 sequence (P08684 whole entry): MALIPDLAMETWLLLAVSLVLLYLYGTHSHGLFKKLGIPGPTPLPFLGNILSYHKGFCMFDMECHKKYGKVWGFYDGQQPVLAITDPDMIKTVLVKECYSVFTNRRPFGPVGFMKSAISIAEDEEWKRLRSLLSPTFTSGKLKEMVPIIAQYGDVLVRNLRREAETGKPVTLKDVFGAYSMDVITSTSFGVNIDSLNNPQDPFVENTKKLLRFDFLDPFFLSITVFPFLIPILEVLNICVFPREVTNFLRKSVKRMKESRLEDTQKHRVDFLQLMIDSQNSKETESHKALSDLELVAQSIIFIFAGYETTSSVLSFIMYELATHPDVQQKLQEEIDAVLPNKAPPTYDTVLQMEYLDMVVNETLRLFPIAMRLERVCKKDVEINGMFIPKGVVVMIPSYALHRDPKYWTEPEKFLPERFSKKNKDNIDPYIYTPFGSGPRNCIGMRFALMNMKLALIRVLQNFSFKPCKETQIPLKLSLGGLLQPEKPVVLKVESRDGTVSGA
Chain of Paired box protein Pax-8 (Q06710 whole entry): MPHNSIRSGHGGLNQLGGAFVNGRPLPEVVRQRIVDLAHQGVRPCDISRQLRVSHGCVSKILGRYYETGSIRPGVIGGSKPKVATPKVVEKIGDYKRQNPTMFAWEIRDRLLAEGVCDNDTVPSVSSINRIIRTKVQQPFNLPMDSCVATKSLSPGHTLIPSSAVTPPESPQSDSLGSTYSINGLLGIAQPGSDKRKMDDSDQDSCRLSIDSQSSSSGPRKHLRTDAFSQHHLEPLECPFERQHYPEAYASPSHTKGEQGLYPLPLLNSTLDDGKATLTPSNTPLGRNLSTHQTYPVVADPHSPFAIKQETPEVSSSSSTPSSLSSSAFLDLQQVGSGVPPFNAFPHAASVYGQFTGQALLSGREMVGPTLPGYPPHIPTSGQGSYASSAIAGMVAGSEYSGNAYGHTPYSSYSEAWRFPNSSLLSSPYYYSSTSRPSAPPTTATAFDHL
Chain of Eukaryotic translation initiation factor 4E (P63073 whole entry): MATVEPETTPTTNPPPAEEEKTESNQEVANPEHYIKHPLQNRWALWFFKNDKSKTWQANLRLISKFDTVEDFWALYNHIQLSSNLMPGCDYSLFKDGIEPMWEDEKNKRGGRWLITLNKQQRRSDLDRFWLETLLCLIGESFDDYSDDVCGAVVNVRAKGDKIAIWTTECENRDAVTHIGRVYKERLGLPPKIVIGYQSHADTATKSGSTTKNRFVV

For `CCOc1cccc2cc(C(=O)Nc3nccs3)c(=O)oc12`, the IC50 [1] was > 100 µM (not active) and the IC50 (cells) was 1.31 µM (active).

With `COc1ccc(/C=N/n2cnc3c4cc(Br)ccc4nc-3c2O)cc1CN1CCOCC1` the AC50 (Cytochrome P450 2C9 [2]) was 3.55 µM (inconclusive) and the IC50 [3] was > 64 µM (inactive).

For `CCN(CC)CCCN(Cc1cc2cc3c(cc2[nH]c1=O)OCO3)C(=S)Nc1ccccc1OC`, the IC50 (Prothrombin) was > 50 µM (not active).

With `CC1=CC(C)(C)N2C(=O)C3(NCCc4c3[nH]c3ccccc43)c3cc(C)cc1c32` (stereo not drawn) the EC50 [4] was > 120 µM (not active), the EC50 [5] was > 120 µM (not active) and the CC50 (Vero [6]) was > 25 µM (active). The EC50 [7] was 12.2 µM (active), the IC50 (Vero [8]) was 22.7 µM (active) and the AC50 (Paired box protein Pax-8) was 7.27 µM (active).

For `CCC1Oc2ccccc2N(CC(=O)NCCCN2CCCCC2C)C1=O` (stereo not drawn), the AC50 (Cytochrome P450 3A4 [9]) was 20 µM (inconclusive), the AC50 (Cytochrome P450 2C19) was 2.24 µM (inconclusive) and the AC50 (Cytochrome P450 2C9 [10]) was “inconclusive”.

For `CCCCOC(=O)Sc1nc2ccccc2o1`, the IC50 (Prothrombin) was 3.11 µM (active).

For `COc1ccc(CC(=O)NC(=S)NNC(=O)COc2c(C)cccc2C)cc1`, the CC50 (Vero [6]) was > 25 µM (active), the IC50 (Vero [8]) was 11.4 µM (active) and the EC50 [11] was 0.124 µM (active). The EC50 (Streptococcus) was 6.88 µM (active).

For `COc1ccc(-n2nc(C(=O)c3cccs3)cc(-c3nc4ccccc4[nH]3)c2=N)cc1`, the EC50 [12] was > 60 µM (not active), the EC50 [13] was 11.2 µM (active) and the EC50 [14] was 66.3 µM (active). For the same compound, the IC50 (Prothrombin) was > 50 µM (not active), the EC50 [11] was 3.26 µM (active) and the EC50 [15] was 14.6 µM (active). The EC50 [16] was 53.8 µM (active), the EC50 (Streptococcus) was 10 µM (active) and the EC50 [17] was 0.531 µM (active).

In the case of `CCC(C)[C@H](NC(=O)NCC1CCCO1)C(=O)OC` (stereo partly drawn), the IC50 [1] is reported as > 100 µM (not active).

With `CC(C)(C)c1ccc(OCC(=O)NNC(=O)CCc2ccccc2)cc1` the AC50 (Cytochrome P450 3A4 [18]) was “inconclusive”, the AC50 (Cytochrome P450 2C19) was 14.1 µM (inconclusive) and the AC50 (Cytochrome P450 2C9 [10]) was “inconclusive”.

For `COc1ccccc1CN(CC(=O)NCc1ccco1)C(=O)CNS(=O)(=O)c1ccc(C)cc1`, the IC50 (Prothrombin) was 7.63 µM (active).
